# Earlier results, collected in US20260217893A1, “ACID-BLOCKED PYRROLIDINE CATALYSTS FOR POLYURETHANE FOAM” (Huntsman Petrochemical LLC, priority 2019, published 2026).
# Conditions: refs 2-5: CRC Handbook, U.S. Pat. No. 9,051,442, J. Org. Chem. 1961, J. Chem. Eng. Data 2016
row,SMILES,pKa
1,"CN(C)CCN(C)CCO [JEFFCAT ® Z-110, N,N,N-trimethylaminoethyl-ethanolamine]",9.18
2,"CN(C)CCOCCO [JEFFCAT ® ZR-70, 2-(2-dimethylaminoethoxy) ethanol]",9.1
3,"CN(C)CCN(C)CCN(C)C [PMDETA, pentamethyldiethylenetriamine]",9.1
4,"CN(C)C1CCCCC1 [dimethylcyclohexylamine, N,N-dimethylcyclohexylamine]",10.1
